Assay [1] deals with T1, DNA gyrase (Staphylococcus aureus) (UniProt P0A0K8+P20831). In words: In vitro antibacterial activity against gram-positive organism Staphylococcus aureus ATCC 6538p. Format: functional.
For assay [2], the target named is T2, DNA gyrase (Escherichia coli) (UniProt P0AES6+P0AES4). Description: In vitro antibacterial activity against gram-negative organism […] ATCC 13048. Format: functional. The settings on record: Enterobacter aerogenes.
Assay [3] has as its target T2, DNA gyrase (Escherichia coli). In words: In vitro antibacterial activity against gram-positive organism Enterococcus faecium ATCC 8043. Format: functional.
For assay [4] the target is unchanged. In words: In vitro antibacterial activity against gram-negative organism Klebsiella pneumoniae ATCC 8045. Format: functional.
The target is the same in assay [5]. Description: In vivo efficacy against Escherichia coli JUHL after oral administration. Format: functional, organism-based. The note with it: Escherichia coli K-12.
For assay [6] the target is unchanged. Description: In vivo efficacy against Escherichia coli JUHL by subcutaneous administration. Format: functional, organism-based. The settings on record: Escherichia coli K-12.
The target is the same in assay [7]. In words: In vitro antibacterial activity against gram-positive organism Streptococcus bovis A-5169. Format: functional. The note with it: Streptococcus equinus.
Assay [8] shares this target. The note with it: Escherichia coli K-12.
Description: Concentration which causes 50% of the gyrase (Escherichia coli H560)-mediated maximal DNA cleavage.
A short description of assay [9]: In vitro antibacterial activity against gram-negative organism Pseudomonas aeruginosa DPHD-2862. Format: functional. The settings on record: Pseudomonas aeruginosa; read-out: MIC.
Assay [10] has as its target T1, DNA gyrase (Staphylococcus aureus). Description: In vitro antibacterial activity against gram-positive organism Staphylococcus aureus NCTC-10649M. Format: functional.
For assay [11] the target is unchanged. Description: In vivo efficacy against Staphylococcus aureus NCTC-10649M after subcutaneous administration. Format: functional, organism-based.
Assay [12] has the same target. Description: In vivo efficacy against Staphylococcus aureus NCTC-10649M after oral administration. Format: functional, organism-based.
Assay [13] concerns the target T2, DNA gyrase (Escherichia coli). In words: In vitro antibacterial activity against gram-negative organism Prov. stuartii CMX-640. Format: functional. The note with it: Providencia stuartii.
Another assay has as its system Streptococcus pyogenes. In words: In vitro antibacterial activity against gram-positive organism Streptococcus pyogenes EES61. Format: functional. The settings on record: Streptococcus pyogenes; read-out: MIC.
The target of assay [14] is T1, DNA gyrase (Staphylococcus aureus). Description: In vitro antibacterial activity against gram-positive organism Staphylococcus aureus 1775. Format: functional.
The target of assay [15] is T2, DNA gyrase (Escherichia coli). In words: In vitro antibacterial against gram-negative organism Escherichia coli JUHL. Format: functional. The settings on record: Escherichia coli K-12.
A short description of assay [16]: In vitro antibacterial activity against gram-negative organism Pseudomonas aeruginosa 5007. Format: functional. The note with it: Pseudomonas aeruginosa; read-out: MIC.
Another assay has as its system Pseudomonas aeruginosa. Description: In vivo efficacy against Pseudomonas aeruginosa 5007 following p.o. administration.
Assay [17] can be described thus: In vivo efficacy against Pseudomonas aeruginosa 5007 after subcutaneous administration. Format: functional. The note with it: Pseudomonas aeruginosa, sc; read-out: ED50.

≈ marks a conversion by molar mass, not a printed value.

T1 sequence (P0A0K8 2-644 limits assumed): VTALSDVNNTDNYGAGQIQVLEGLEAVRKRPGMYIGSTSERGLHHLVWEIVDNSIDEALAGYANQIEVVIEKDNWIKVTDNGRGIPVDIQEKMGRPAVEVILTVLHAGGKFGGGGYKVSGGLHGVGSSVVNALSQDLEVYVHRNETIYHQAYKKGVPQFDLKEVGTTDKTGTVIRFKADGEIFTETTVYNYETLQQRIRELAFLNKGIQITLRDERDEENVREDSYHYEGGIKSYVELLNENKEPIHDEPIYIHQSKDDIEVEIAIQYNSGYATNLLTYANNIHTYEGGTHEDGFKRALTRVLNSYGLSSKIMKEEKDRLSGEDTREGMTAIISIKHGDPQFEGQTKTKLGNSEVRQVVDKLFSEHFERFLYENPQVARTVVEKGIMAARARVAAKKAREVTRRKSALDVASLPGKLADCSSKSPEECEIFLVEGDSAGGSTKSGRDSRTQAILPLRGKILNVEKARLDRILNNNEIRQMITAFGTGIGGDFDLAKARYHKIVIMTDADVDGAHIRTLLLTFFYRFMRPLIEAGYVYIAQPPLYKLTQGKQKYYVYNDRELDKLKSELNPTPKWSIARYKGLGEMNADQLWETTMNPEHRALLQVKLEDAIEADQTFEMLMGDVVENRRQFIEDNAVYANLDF
T1 sequence (P20831 whole entry partner): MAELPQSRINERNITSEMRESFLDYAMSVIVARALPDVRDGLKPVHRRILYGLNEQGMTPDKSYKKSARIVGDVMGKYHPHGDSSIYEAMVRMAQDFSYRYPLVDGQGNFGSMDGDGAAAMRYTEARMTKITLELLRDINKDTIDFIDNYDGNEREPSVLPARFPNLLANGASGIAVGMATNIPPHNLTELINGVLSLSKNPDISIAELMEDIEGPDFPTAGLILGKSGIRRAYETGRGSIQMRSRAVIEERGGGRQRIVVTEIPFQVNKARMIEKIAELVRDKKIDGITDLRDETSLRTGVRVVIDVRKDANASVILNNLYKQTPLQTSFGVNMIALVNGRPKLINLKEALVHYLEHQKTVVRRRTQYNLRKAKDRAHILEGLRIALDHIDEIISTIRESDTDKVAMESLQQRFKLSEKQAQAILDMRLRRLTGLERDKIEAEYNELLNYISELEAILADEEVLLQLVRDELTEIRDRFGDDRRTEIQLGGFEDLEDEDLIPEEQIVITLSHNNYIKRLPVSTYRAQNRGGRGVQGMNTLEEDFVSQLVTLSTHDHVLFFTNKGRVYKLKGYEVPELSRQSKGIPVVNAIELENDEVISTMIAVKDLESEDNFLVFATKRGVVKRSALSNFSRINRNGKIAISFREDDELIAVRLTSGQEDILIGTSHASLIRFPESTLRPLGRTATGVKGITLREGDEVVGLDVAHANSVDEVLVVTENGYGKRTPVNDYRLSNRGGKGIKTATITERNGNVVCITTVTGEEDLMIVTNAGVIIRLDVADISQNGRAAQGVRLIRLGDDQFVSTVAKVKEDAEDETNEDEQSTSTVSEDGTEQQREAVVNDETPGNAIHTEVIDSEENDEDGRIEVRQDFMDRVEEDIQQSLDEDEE

The term ED50 denotes the dose that gives a 50% effect, or the effect in half of the subjects. `NC1CCN(c2nc3c(C4CC4)cc(C(=O)O)c(=O)n3cc2F)C1` (stereo not given): the MIC was 0.2 µg/mL (≈ 0.602 µM) in assay [1]; 0.02 µg/mL (≈ 0.0602 µM) in assay [2]; 1.56 µg/mL (≈ 4.69 µM) in assay [3]; 0.02 µg/mL (≈ 0.0602 µM) in assay [4]; 3.1 µg/mL (≈ 9.33 µM) in [7]; 25 µg/mL (≈ 75.2 µM) in assay [9]. The MIC in [10] turned out to be 0.2 µg/mL (≈ 0.602 µM); in assay [13] it was 1.56 µg/mL (≈ 4.69 µM); in the assay with Streptococcus pyogenes, 1.56 µg/mL (≈ 4.69 µM); in [14], 25 µg/mL (≈ 75.2 µM); in assay [15], 0.02 µg/mL (≈ 0.0602 µM); in assay [16], 0.39 µg/mL (≈ 1.17 µM). In addition, the ED50 in assay [5] is 4.7 mg/kg; in [6] it was 1 mg/kg; in assay [11], above 8 mg/kg; in [12], above 12 mg/kg. The CC50 in [8] came out at 0.15 µg/mL (≈ 0.451 µM).
Take `NC1CCN(c2c(F)cn3c(=O)c(C(=O)O)cc(C4CC4)c3c2F)C1` (stereo not given): the MIC in assay [1] worked out at 0.1 µg/mL (≈ 0.286 µM); in assay [2] it was 0.02 µg/mL (≈ 0.0573 µM); in [3] it was 0.78 µg/mL (≈ 2.23 µM); in assay [4], 0.01 µg/mL (≈ 0.0286 µM); in assay [7], 0.78 µg/mL (≈ 2.23 µM); in assay [9], 6.2 µg/mL (≈ 17.7 µM). For the same molecule, the MIC in assay [10] worked out at 0.1 µg/mL (≈ 0.286 µM); in [13], 3.1 µg/mL (≈ 8.87 µM); with Streptococcus pyogenes it was 0.78 µg/mL (≈ 2.23 µM); in [14], 6.2 µg/mL (≈ 17.7 µM); in [15], 0.01 µg/mL (≈ 0.0286 µM); in assay [16] it was 0.39 µg/mL (≈ 1.12 µM). The same molecule gave a CC50 in assay [8] of 2.2 µg/mL (≈ 6.3 µM). For the same molecule, the figures for the ED50 in assay [11] and in [12] were 2.9 mg/kg and 14.6 mg/kg, respectively.
Turning to `Cc1c(N2C[C@@H]3CCCN[C@@H]3C2)c(F)cn2c(=O)c(C(=O)O)cc(C3CC3)c12` (stereo in doubt; 45n), the MIC in [1] amounted to 0.01 µg/mL (≈ 0.0259 µM); in assay [2], 0.05 µg/mL (≈ 0.13 µM); in [3] it was 0.1 µg/mL (≈ 0.259 µM); in assay [4] it was 0.01 µg/mL (≈ 0.0259 µM); in assay [7], 0.05 µg/mL (≈ 0.13 µM); in [10], 0.02 µg/mL (≈ 0.0519 µM). Moreover, the MIC was determined as 0.78 µg/mL (≈ 2.02 µM) in [13], 0.78 µg/mL (≈ 2.02 µM) in assay [14] and 0.05 µg/mL (≈ 0.13 µM) in [15]. Also, the ED50 in assay [5] turned out to be 3.3 mg/kg; in assay [6] it was 1 mg/kg; in [11], 0.9 mg/kg; in [12], 3.1 mg/kg; with Pseudomonas aeruginosa, 36.4 mg/kg. This molecule registered a CC50 in assay [8] of 0.3 µg/mL (≈ 0.778 µM).
Consider `Cc1c(N2C[C@@H]3CCN[C@@H]3C2)c(F)cn2c(=O)c(C(=O)O)cc(C3CC3)c12` (stereo in doubt; (S,S)45o), for which the MIC in assay [1] was found to be 0.05 µg/mL (≈ 0.135 µM); in [2] it was 0.05 µg/mL (≈ 0.135 µM); in assay [3], 0.1 µg/mL (≈ 0.269 µM); in assay [4], 0.01 µg/mL (≈ 0.0269 µM); in assay [7], 0.1 µg/mL (≈ 0.269 µM); in assay [10], 0.05 µg/mL (≈ 0.135 µM). Besides, the figures for the MIC in assay [13], in assay [14] and in assay [15] were 0.39 µg/mL (≈ 1.05 µM), 3.1 µg/mL (≈ 8.35 µM) and 0.02 µg/mL (≈ 0.0538 µM), respectively. For the same molecule, the ED50 in assay [5] was above 10 mg/kg; in assay [6] it was 0.8 mg/kg; in assay [11] it was 1.5 mg/kg; in [12] it was 5 mg/kg.
Regarding `Cc1c(N2CC[C@H]([C@@H](C)N)C2)c(F)cn2c(=O)c(C(=O)O)cc(C3CC3)c12`, the MIC in assay [1] is 0.002 µg/mL (≈ 0.00536 µM); in [2] it was 0.02 µg/mL (≈ 0.0536 µM); in assay [3], 0.01 µg/mL (≈ 0.0268 µM); in assay [4] it was 0.01 µg/mL (≈ 0.0268 µM); in [7], 0.005 µg/mL (≈ 0.0134 µM); in assay [9], 3.1 µg/mL (≈ 8.3 µM). Besides, the MIC in [10] is 0.002 µg/mL (≈ 0.00536 µM); in assay [13], 0.39 µg/mL (≈ 1.04 µM); in the assay on Streptococcus pyogenes it was below 0.001 µg/mL; in [14], 0.2 µg/mL (≈ 0.536 µM); in assay [15], 0.01 µg/mL (≈ 0.0268 µM); in assay [16] it was 0.2 µg/mL (≈ 0.536 µM). Moreover, the ED50 was above 8 mg/kg in assay [17], 0.3 mg/kg in [11] and 1.2 mg/kg in assay [12]. Besides, the CC50 in assay [8] came to 0.6 µg/mL (≈ 1.61 µM).
As for `Cc1c(N2CC[C@@]3(C[C@H]3N)C2)c(F)cn2c(=O)c(C(=O)O)cc(C3CC3)c12`, the MIC in [1] turned out to be 0.005 µg/mL (≈ 0.0135 µM); in assay [2], 0.05 µg/mL (≈ 0.135 µM); in assay [3], 0.05 µg/mL (≈ 0.135 µM); in assay [4], 0.01 µg/mL (≈ 0.0269 µM); in assay [9], 6.2 µg/mL (≈ 16.7 µM); in assay [10], 0.01 µg/mL (≈ 0.0269 µM). The MIC in assay [13] was found to be 0.78 µg/mL (≈ 2.1 µM); in the assay on Streptococcus pyogenes, 0.02 µg/mL (≈ 0.0538 µM); in [14] it was 0.39 µg/mL (≈ 1.05 µM); in [15] it was 0.01 µg/mL (≈ 0.0269 µM); in [16], 0.39 µg/mL (≈ 1.05 µM). Besides, the ED50 in assay [5] was 12.8 mg/kg; in assay [6], 1.9 mg/kg; in [11], 1.5 mg/kg; in assay [12], 6.3 mg/kg.
In the case of `CC(NC(=O)C(C)N[C@H]1C[C@H](C)N(c2nc3c(-c4ccc(F)cc4F)cc(C(=O)O)c(=O)n3cc2F)C1)C(=O)O` (stereo not given in full), the ED50 in [5] turned out to be 26.7 mg/kg; in assay [6] it was 3.3 mg/kg; in assay [11], 11.4 mg/kg; in assay [12], 25.3 mg/kg.

(Values after ChEMBL document CHEMBL1129258, “Synthesis and structure-activity relationships of 2-pyridones: a novel series of potent DNA gyrase inhibitors as antibacterial agents” (J Med Chem, 1996).)
